{"source": "patent US12565485B2", "about": "“Solid forms of 1-((S)-4-((R)-7-(6-amino-4-methyl-3-(trifluoromethyl)pyridin-2-yl)-6-chloro-8-fluoro-2-(((s)-1-methylpyrrolidin-2-yl)methoxy)quinazolin-4-yl)-3-methylpiperazin-1-yl)prop-2-en-1-one” (Genentech, Inc., priority 2022, dated 2026)", "format_in_all_cases": "physicochemical", "key": {"[1]": {"experiment": "Heating under N2 protection (VT-XRPD), form change", "description": "Compound B Form A was obtained from an acetone system and the sample was air dried at RT. […] (peak temperature) before the possible overlapped peak with peak temperature at 156.3° C. (FIG. 12). Based on the integrals, the stoichiometric ratio of fumaric acid:freebase was determined to be 1.03. A peak of acetone was observed and approximately 0.49 molar acetone (4.4 wt %) was detected. The HPLC purity of Compound B Form A was determined to be 93.56 area %. […] Around 0.39 molar acetone (3.5 wt %) was still detected. One endotherm at 58.7° C. and an overlapped peak with peak temperature at 157.1° C. were still observed on the sample obtained after heating. The first endotherm might be caused by re-adsorption of moisture. Since ˜3.5 wt % acetone was still detected from NMR, Compound B Form A is expected to be an acetone/H2O co-solvate. […]"}, "[2]": {"experiment": "Form change before and after drying (XRPD)", "conditions": "for Form change before and after drying: air dried at RT", "description": "The wet sample was vacuum dried at RT for 3 hrs. […] A solid was obtained with a yield of 62.2%. […] (peak temperature). Based on the integrals in NMR spectrum, the stoichiometric ratio of adipic acid:freebase was determined to be 1.06. A peak of EtOAc was observed. Around 0.07 molar EtOAc (0.8 wt %) was detected, which was consistent with TGA weight loss.\n(peak), and one small endotherm at 158.8° C. […] Based on the integrals, the stoichiometric ratio of adipic acid:freebase was determined to be 1.65.\n(peak temperature). Based on the integrals, the stoichiometric ratio of adipic acid:freebase was determined to be 1.06. Peak of THF was observed. Around 0.17 molar THF (1.9 wt %) was detected, which was consistent with TGA weight loss.\nCompound B Form A was obtained from an acetone system and the sample was air dried at RT. […] (peak temperature) before the possible overlapped peak with peak temperature at 156.3° C. (FIG. 12). Based on the integrals, the stoichiometric ratio of fumaric acid:freebase was determined to be 1.03. A peak of acetone was observed and approximately 0.49 molar acetone (4.4 wt %) was detected. The HPLC purity of Compound B Form A was determined to be 93.56 area %. […] Around 0.39 molar acetone (3.5 wt %) was still detected. One endotherm at 58.7° C. and an overlapped peak with peak temperature at 157.1° C. were still observed on the sample obtained after heating. The first endotherm might be caused by re-adsorption of moisture. Since ˜3.5 wt % acetone was still detected from NMR, Compound B Form A is expected to be an acetone/H2O co-solvate.\nCompound C Form A was obtained from EtOAc system and the sample was air dried at RT. […] HPLC purity of Compound C Form A was determined to be 95.18 area %."}, "[3]": {"experiment": "Static storage at 25° C./97% RH and 40° C./75% RH", "conditions": "after 7 days", "description": "Amorphous material of Compound A (mono adipate salt) was successfully prepared through freeze drying. Characterisation of the initial batch of samples were all shown to be amorphous by XRPD and the NMR's contained ca. 1.1 eq. adipic acid with varying quantities of residual solvent, except for acetonitrile/water (1:1) which contained no residual solvent. […] Static storage at 25° C./97% RH and 40° C./75% RH after 7 days were all shown to have deliquesced."}, "[4]": {"experiment": "Slurry competition between Compound A Form A and B", "description": "The suspensions were stirred at a speed of 750 rpm and tested by XRPD in transmission mode."}, "[5]": {"experiment": "VH-XRPD analysis / transitions of forms at varying relative humidity", "conditions": "dehydrated", "text": "FIG. 19. The sample then reverts to the original form upon reaching 30% RH. […] Transitions of Forms of Compound A at varying RH."}, "[6]": {"experiment": "Approximate solubility at RT (stepwise solvent addition until visually dissolved)", "description": "The solubility of starting material was estimated at RT in 20 solvents. For each experiment, approximately 2 mg of sample was added into a 3-mL glass vial. Solvents in Table 32 were then added stepwise (50, 50, 200, 700 μL) into the vials until the solids were dissolved visually or a total volume of 1 mL was reached."}, "[7]": {"conditions": "heating to 100° C. under N2 protection, cooled down and exposed to ambient conditions"}}}
{"smiles": "C=CC(=O)N1CCN(c2nc(OC[C@@H]3CCCN3C)nc3c(F)c(-c4nc(N)cc(C)c4C(F)(F)F)c(Cl)cc23)[C@@H](C)C1", "note": "[Compound C Form A]", "values": [{"measurement": "Form change after heating", "setting": "[1]; heating to 100° C. under N2 protection, cooled down and exposed to ambient conditions, listed as Form A of Compound C", "value": "no form change was observed"}, {"measurement": "Form change before and after drying", "setting": "[2]", "value": "No form change was observed"}]}
{"smiles": "C=CC(=O)N1CCN(c2nc(OC[C@@H]3CCCN3C)nc3c(F)c(-c4nc(N)cc(C)c4C(F)(F)F)c(Cl)cc23)[C@@H](C)C1.O=C(O)CCCCC(=O)O", "note": "[Amorphous material of Compound A]", "values": [{"measurement": "Static storage observation", "setting": "[3]; 25° C./97% RH", "value": "deliquesced"}, {"measurement": "Static storage observation", "setting": "[3]; 40° C./75% RH", "value": "deliquesced"}]}
{"smiles": "C=CC(=O)N1CCN(c2nc(OC[C@@H]3CCCN3C)nc3c(F)c(-c4nc(N)cc(C)c4C(F)(F)F)c(Cl)cc23)[C@@H](C)C1", "note": "[Compound A Form B]", "values": [{"measurement": "Form change after heating", "setting": "[1]; heating to 90° C. under N2 protection", "value": "no form change was observed"}, {"measurement": "Form change after drying", "setting": "[2]; air drying at RT overnight", "value": "No form change was observed"}]}
{"smiles": "C=CC(=O)N1CCN(c2nc(OC[C@@H]3CCCN3C)nc3c(F)c(-c4nc(N)cc(C)c4C(F)(F)F)c(Cl)cc23)[C@@H](C)C1.O=C(O)/C=C/C(=O)O", "note": "(atropisomer, axis not shown) [Compound B Form A]", "values": [{"measurement": "Form change after heating", "setting": "[1]; [7]", "value": "no form change was observed"}, {"measurement": "Form change before and after drying", "setting": "[2]", "value": "No form change was observed"}]}
{"smiles": "C=CC(=O)N1CCN(c2nc(OC[C@@H]3CCCN3C)nc3c(F)c(-c4nc(N)cc(C)c4C(F)(F)F)c(Cl)cc23)[C@@H](C)C1.O=C(O)CCCCC(=O)O", "note": "[Compound A Form A + B]", "values": [{"measurement": "Slurry competition result (XRPD form)", "setting": "[4]; IPA, 5° C.", "value": "Compound A Form A"}, {"measurement": "Slurry competition result (XRPD form)", "setting": "[4]; IPA, 5° C., listed as Compound A Form A+B", "value": "turned to Compound A Form A"}, {"measurement": "Slurry competition result (XRPD form)", "setting": "[4]; IPA, −20° C.", "value": "Compound A Form A"}, {"measurement": "Slurry competition result (XRPD form)", "setting": "[4]; IPA, −20° C., listed as Compound A Form A+B", "value": "turned to Compound A Form A"}, {"measurement": "Slurry competition result (XRPD form)", "setting": "[4]; Toluene, 5 to RT (RT for 18 days)", "value": "Compound A Form A"}, {"measurement": "Slurry competition result (XRPD form)", "setting": "[4]; Toluene, 5 to RT (RT for 18 days), listed as Compound A Form A+B", "value": "Compound A Form A was observed"}, {"measurement": "Slurry competition result (XRPD form)", "setting": "[4]; Toluene, 5° C., after 5 days", "value": "a mixture of Compound A Form A+B was observed"}]}
{"smiles": "C=CC(=O)N1CCN(c2nc(OC[C@@H]3CCCN3C)nc3c(F)c(-c4nc(N)cc(C)c4C(F)(F)F)c(Cl)cc23)[C@@H](C)C1", "note": "[Compound A Form D]", "values": [{"measurement": "Form after dehydration", "setting": "[5]", "value": "formed Compound A Form C"}]}
{"smiles": "C=CC(=O)N1CCN(c2nc(OC[C@@H]3CCCN3C)nc3c(F)c(-c4nc(N)cc(C)c4C(F)(F)F)c(Cl)cc23)[C@@H](C)C1.CC(=O)O", "note": "(atropisomer, axis not shown) [Compound F Form A]", "values": [{"measurement": "Form change after heating", "setting": "[1]; [7]", "value": "no form change was observed"}]}
{"smiles": "C=CC(=O)N1CCN(c2nc(OC[C@@H]3CCCN3C)nc3c(F)c(-c4nc(N)cc(C)c4C(F)(F)F)c(Cl)cc23)[C@@H](C)C1", "note": "[starting material]", "values": [{"measurement": "Solubility", "setting": "[6]; 1,4-Dioxane", "value": "S > 38.0 mg/mL"}, {"measurement": "Solubility", "setting": "[6]; 2-MeTHF", "value": "S > 40.0 mg/mL"}, {"measurement": "Solubility", "setting": "[6]; Acetone", "value": "S > 40.0 mg/mL"}, {"measurement": "Solubility", "setting": "[6]; Anisole", "value": "S > 38.0 mg/mL"}, {"measurement": "Solubility", "setting": "[6]; CPME", "value": "S > 40.0 mg/mL"}, {"measurement": "Solubility", "setting": "[6]; DCM", "value": "S > 38.0 mg/mL"}, {"measurement": "Solubility", "setting": "[6]; DMSO", "value": "S > 38.0 mg/mL"}, {"measurement": "Solubility", "setting": "[6]; EtOAc", "value": "S > 40.0 mg/mL"}, {"measurement": "Solubility", "setting": "[6]; H2O", "value": "S < 2.1 mg/mL"}, {"measurement": "Solubility", "setting": "[6]; IPAc", "value": "S > 40.0 mg/mL"}, {"measurement": "Solubility", "setting": "[6]; MEK", "value": "S > 46.0 mg/mL"}, {"measurement": "Solubility", "setting": "[6]; MIBK", "value": "S > 42.0 mg/mL"}, {"measurement": "Solubility", "setting": "[6]; MeOH", "value": "S > 42.0 mg/mL"}, {"measurement": "Solubility", "setting": "[6]; THF", "value": "S > 44.0 mg/mL"}, {"measurement": "Solubility", "setting": "[6]; Toluene", "value": "S > 40.0 mg/mL"}, {"measurement": "Solubility", "setting": "[6]; n-Heptane", "value": "S < 2.0 mg/mL"}]}
